Experimental data published in PMC10473532 (PLOS ONE, 2023).
Like-named read-outs stand apart in the source and are kept apart here.

Columns and labels:
human β3-AR = human β3-AR (Homo sapiens, UniProt P13945); assay: cAMP accumulation in CHO-K1 cells expressing human β3-AR; conditions: for EC50: EC50 β3-AR; for β3-AR selectivity vs β1-AR / β3-AR selectivity vs β2-AR: comparison between EC50 values; for cAMP activity at Cmax,u / cAMP activity at Cmin,u: from dose-response curve, β3-AR cells TF 0.025 μg/well;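 for all read-outs here: CHO-K1 cells transiently transfected with a β-AR expression plasmid, cAMP assayed roughly 24 h post-transfection, values derived from agonist concentration–response curves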
Chain of human β3-AR (P13945 whole entry): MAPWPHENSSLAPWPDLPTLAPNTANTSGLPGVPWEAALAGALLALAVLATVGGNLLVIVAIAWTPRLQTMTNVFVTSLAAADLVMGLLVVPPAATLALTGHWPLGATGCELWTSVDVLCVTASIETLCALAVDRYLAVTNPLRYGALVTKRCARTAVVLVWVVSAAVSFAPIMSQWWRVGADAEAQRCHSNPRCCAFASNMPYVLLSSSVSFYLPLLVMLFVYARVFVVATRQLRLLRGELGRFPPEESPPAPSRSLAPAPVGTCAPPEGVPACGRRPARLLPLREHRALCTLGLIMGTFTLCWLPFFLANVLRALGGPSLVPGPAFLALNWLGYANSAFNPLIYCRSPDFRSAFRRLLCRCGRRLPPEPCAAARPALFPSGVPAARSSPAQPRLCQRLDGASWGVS
Protocol: (§1) Chinese hamster ovary (CHO)-K1 cells (DS Pharma Biomedical Co., Ltd., Osaka, Japan) were cultured in Ham’s F-12 medium containing 10% fetal bovine serum under 5% CO2 at 37°C. For cAMP assay, 2×10^5 cells/mL were inoculated onto a 96-well plate at 100 μL/well. […] The cells were cultured for about 24 h and used for β-AR transfection (see below). The DNA sequences encoding β1-AR (P08588.2), β2-AR (NP_000015.1), or β3-AR (NP_000016.1) were cloned into a pCI-Neo expression vector (Promega, WI, USA). CHO-K1 cells expressing β1-AR, β2-AR, or β3-AR were constructed by transfection with the appropriate plasmid DNA (β1-, β2-, or β3-AR) using Lipofectamine 2000 (Life Technologies Japan Ltd., Tokyo, Japan), according to the manufacturer’s instructions. […] Lipofectamine was diluted with Opti-MEM (0.5 μL Lipofectamine/25 μL Opti-MEM) and incubated for 5 min at room temperature. Solutions containing plasmid DNA and Lipofectamine, respectively, were mixed in equal amounts and incubated for 20 min at room temperature. […] The transfected CHO-K1 cells were then cultured for about 24 h and used for the following experiments. Similar experiments were performed after reducing the amounts of transfected plasmid DNA to 0.05 and 0.025 μg.
(§2) Cells that had been cultured for about 24 h after transfection were subjected to cAMP assay.
(§3) In the cAMP assay, the half-maximal effective concentration (EC50) value was calculated for each agonist based on its concentration–response curve using GraphPad Prism 6.0 nonlinear regression analysis.

human β2-AR = human β2-AR (Homo sapiens, UniProt P07550, E27Q/G16R); assay: cAMP accumulation in CHO-K1 cells expressing human β2-AR; conditions: for Intrinsic activity β2-AR: isoproterenol max = 1.00
Protocol: as §1, §2, §3

human β1-AR = biological target: T1, human β1-AR (Homo sapiens, UniProt P08588); assay: cAMP accumulation in CHO-K1 cells expressing human β1-AR; format: cell-based;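 note: cells transiently transfected with a β1-AR expression plasmid, seeded in 96-well plates and assayed for cAMP about 24 h after transfection across agonist concentration–response curves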
T1 construct: expressed in transfected cells; host or cells: CHO-K1 cells, transient transfection with pCI-Neo plasmid (Lipofectamine 2000)
T1 sequence (P08588 whole entry): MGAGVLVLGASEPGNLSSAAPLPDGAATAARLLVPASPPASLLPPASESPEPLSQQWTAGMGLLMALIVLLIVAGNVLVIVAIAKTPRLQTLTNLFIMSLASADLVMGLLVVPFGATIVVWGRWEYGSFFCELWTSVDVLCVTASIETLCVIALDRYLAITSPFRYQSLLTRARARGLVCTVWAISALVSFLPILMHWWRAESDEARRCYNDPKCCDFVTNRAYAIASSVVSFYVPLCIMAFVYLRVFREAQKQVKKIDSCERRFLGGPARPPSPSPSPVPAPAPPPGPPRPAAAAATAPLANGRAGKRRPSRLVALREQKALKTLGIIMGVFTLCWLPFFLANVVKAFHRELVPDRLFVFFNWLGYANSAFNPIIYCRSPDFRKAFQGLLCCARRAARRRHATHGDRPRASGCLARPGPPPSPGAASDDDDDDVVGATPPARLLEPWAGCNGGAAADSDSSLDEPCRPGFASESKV
Protocol: as §1, §2, §3

[1] = system: isolated rat bladder strips; parameters: method as in PMID 24213882; conditions: cited from earlier work
β1-AR = biological target: β1-AR; parameters: method as in PMID 22430195; conditions: binding assays; read-out: inhibition constant (Ki) β1-AR; cited from earlier work
β2-AR = biological target: β2-AR; parameters: method as in PMID 22430195; conditions: binding assays; read-out: inhibition constant (Ki) β2-AR; cited from earlier work
β3-AR = conditions: recent study comparing vibegron and mirabegron; cited from earlier work
[2] = unbound plasma concentrations at once-daily 50 mg clinical dose; format: in vivo, human; conditions: for Cmax,u (unbound maximum plasma concentration): calculated from Cmax and plasma-protein-binding rate; for Cmin,u (unbound minimum plasma concentration): calculated from Cmin and plasma-protein-binding rate
[3] = therapeutic doses, clinical trials; cited from earlier work
[4] = 52-week, cited from earlier work
[5] = CHO-K1, TF 0.1 μg/well plasmid DNA, cAMP accumulation
[6] = TF 0.05 μg/well, isoproterenol max = 1.00
[7] = TF 0.1 μg/well, 347 fmol/mg, concentration producing 50% of the maximal response induced by isoproterenol
[8] = TF 0.1 μg/well, maximal response of isoproterenol = 1.00
[9] = EC50 β2-AR, CHO-K1, TF 0.1 μg/well plasmid DNA, cAMP accumulation
[10] = CHO-K1, TF 0.1 μg/well plasmid DNA, cAMP accumulation, read-out: EC50 β1-AR
[11] = TF 0.025 μg/well, isoproterenol max = 1.00
[12] = TF 0.025 μg/well, read-out: EC50 β1-AR
[13] = TF 0.05 μg/well, read-out: EC50 β1-AR

Structure (SMILES)	EC50 (human β3-AR; [5])	EC50 (human β3-AR; TF 0.025 μg/well)	EC50 (human β3-AR; TF 0.05 μg/well)	Iso50 (human β3-AR; TF 0.025 μg/well, 116 fmol/mg)	Iso50 (human β3-AR; TF 0.05 μg/well, 222 fmol/mg)	Intrinsic activity β3-AR (human β3-AR; [6])	Iso50 (human β3-AR; [7])	Intrinsic activity β3-AR (human β3-AR; [8])	β3-AR selectivity vs β1-AR (human β3-AR; TF 0.1 μg/well)	β3-AR selectivity vs β2-AR (human β3-AR; TF 0.1 μg/well)	EC50 (human β2-AR; [9])	EC50 (human β2-AR; EC50 β2-AR, TF 0.025 μg/well)	EC50 (human β2-AR; EC50 β2-AR, TF 0.05 μg/well)	Intrinsic activity β2-AR (human β2-AR; TF 0.05 μg/well)	EC50 (human β1-AR; [10])	Intrinsic activity β1-AR (human β1-AR; [11])	EC50 (human β1-AR; [12])	Intrinsic activity β1-AR (human β1-AR; [6])	EC50 (human β1-AR; [13])	Intrinsic activity β1-AR (human β1-AR; [8])	further results
O=C(O)c1cccc(-c2cccc(NCCNC[C@H](O)c3cccc(Cl)c3)c2)c1 [Solabegron, solabegron]	27.6 ± 9.08 nM	83.6 ± 29 nM	85.1 ± 5.84 nM	252 ± 78.4 nM	119 ± 27.1 nM	(0.91 ± 0.10)	31.0 ± 10.8 nM	(0.96 ± 0.03)	21.3	>362	> 10000 nM	> 10000 nM	> 10000 nM	(0.20 ± 0.02)	588 ± 105 nM	(0.25 ± 0.06)	> 10000 nM	(0.28 ± 0.04)	> 10000 nM	(0.60 ± 0.04)	Iso50 (human β3-AR; TF 0.025 μg/well, 116 fmol/mg, listed as solabegron): 252 nM; Intrinsic activity β3-AR (human β3-AR; TF 0.05 μg/well, isoproterenol max = 1.00, listed as solabegron): 0.91; Intrinsic activity β3-AR (human β3-AR; TF 0.1 μg/well, maximal response of isoproterenol = 1.00, listed as solabegron): 0.96
CC(C)NC[C@H](O)c1ccc(O)c(O)c1 [Isoproterenol, (–)-isoprenaline (+)-bitartrate]	–	–	–	78.0 ± 10.9 nM	37.9 ± 6.40 nM	(0.96 ± 0.02)	11.8 ± 1.78 nM	–	–	–	–	–	–	–	–	–	–	–	–	–	–
CC(Cc1ccc(O)cc1)NCC(O)c1cc(O)cc(O)c1 (centres unmarked) [fenoterol]	–	–	–	–	–	–	–	–	–	–	–	–	–	–	–	–	–	–	–	–	attenuation of bladder relaxant effect after pretreatment, washout and fresh addition [1]: marked attenuation of the bladder relaxant effect
Nc1nc(CC(=O)Nc2ccc(CCNC[C@H](O)c3ccccc3)cc2)cs1 [Mirabegron, mirabegron]	1.15 ± 0.24 nM	4.17 ± 0.89 nM	2.81 ± 0.6 nM	26.9 ± 7.51 nM	4.45 ± 0.66 nM	(0.84 ± 0.04)	1.32 ± 0.26 nM	(0.94 ± 0.02)	517	496	570 ± 235 nM	> 10000 nM	> 10000 nM	(0.31 ± 0.05)	594 ± 122 nM	(0.25 ± 0.03)	> 10000 nM	(0.38 ± 0.02)	> 10000 nM	(0.59 ± 0.02)	Iso50 (human β3-AR; TF 0.025 μg/well, 116 fmol/mg, listed as mirabegron): 26.9 nM; Intrinsic activity β3-AR (human β3-AR; TF 0.05 μg/well, isoproterenol max = 1.00, listed as mirabegron): 0.84; Intrinsic activity β3-AR (human β3-AR; TF 0.1 μg/well, maximal response of isoproterenol = 1.00, listed as mirabegron): 0.94; cAMP activity at Cmax,u (human β3-AR): about 53%; cAMP activity at Cmin,u (human β3-AR): about 27%; Ki (β1-AR): 383 nM; Ki (β2-AR): 977 nM; IA (Emax) (β3-AR): 80.4%; Cmax,u (unbound maximum plasma concentration) [2]: 20 nM; Cmin,u (unbound minimum plasma concentration) [2]: 3 nM; attenuation of bladder relaxant effect after pretreatment, washout and fresh addition [1]: did not produce such attenuation
O=C(Nc1ccc(C[C@@H]2CC[C@H]([C@H](O)c3ccccc3)N2)cc1)[C@@H]1CCc2nccc(=O)n21 [Vibegron]	1.26 ± 0.4 nM	12.5 ± 2.41 nM	3.83 ± 0.93 nM	22.5 ± 14.5 nM	3.74 ± 0.73 nM	(1.00 ± 0.03)	1.26 ± 0.29 nM	(0.93 ± 0.05)	>7937	>7937	> 10000 nM	> 10000 nM	> 10000 nM	(0.09 ± 0.03)	> 10000 nM	(0.00 ± 0.00)	> 10000 nM	(0.02 ± 0.01)	> 10000 nM	(0.10 ± 0.01)	Iso50 (human β3-AR; TF 0.025 μg/well, 116 fmol/mg, listed as vibegron): 22.5 nM; Intrinsic activity β3-AR (human β3-AR; TF 0.05 μg/well, isoproterenol max = 1.00, listed as vibegron): 1.00; β3-AR selectivity, higher than for β1-ARs (human β3-AR; TF 0.1 μg/well): > 7937 fold; β3-AR selectivity, higher than for β2-ARs (human β3-AR; TF 0.1 μg/well): > 7937 fold; Intrinsic activity β3-AR (human β3-AR; TF 0.1 μg/well, maximal response of isoproterenol = 1.00, listed as vibegron): 0.93; cAMP activity at Cmax,u (human β3-AR): about 82%; cAMP activity at Cmin,u (human β3-AR): ~59%; incidence of increased blood pressure and hypertension [3]: does not affect the incidence of increased blood pressure and hypertension; IA (Emax) (β3-AR): 99.2%; Cmax,u (unbound maximum plasma concentration) [2]: 56 nM; Cmin,u (unbound minimum plasma concentration) [2]: 14 nM; EC50 (human β2-AR; EC50 in cells expressing β2-ARs, TF 0.1 μg/well): > 10000 nM; β2-AR agonist activity (human β2-AR; lowest β2-AR density 108 fmol/mg): no β2-AR agonist activity; attenuation of efficacy ([4]; 50 mg and 100 mg): not observed; vital signs (systolic blood pressure, diastolic blood pressure, and pulse) ([4]; supratherapeutic dose 100 mg): did not affect vital signs; EC50 (human β1-AR; TF 0.1 μg/well, read-out: EC50 in cells expressing β1-ARs): > 10000 nM; β1-AR agonist activity (human β1-AR; cells TF 0.05 μg/well (245 fmol/mg)): no β1-AR agonist activity
Cc1cc(OCC(=O)O)c(C)cc1CCN[C@@H](C)[C@H](O)c1ccc(O)cc1 [Ritobegron, ritobegron]	80.8 ± 12.6 nM	1520 ± 950 nM	398 ± 104 nM	943 ± 244 nM	303 ± 60.7 nM	(1.00 ± 0.07)	81.5 ± 15.4 nM	(0.99 ± 0.02)	>124	28.1	2270 ± 1340 nM	> 10000 nM	> 10000 nM	(0.32 ± 0.05)	> 10000 nM	(0.04 ± 0.01)	> 10000 nM	(0.11 ± 0.02)	> 10000 nM	(0.33 ± 0.03)	Iso50 (human β3-AR; TF 0.025 μg/well, 116 fmol/mg, listed as ritobegron): 943 nM; Intrinsic activity β3-AR (human β3-AR; TF 0.05 μg/well, isoproterenol max = 1.00, listed as ritobegron): 1.00; Intrinsic activity β3-AR (human β3-AR; TF 0.1 μg/well, maximal response of isoproterenol = 1.00, listed as ritobegron): 0.99
